What all share (type): biochemical
One assay concerns the target T1, Axl (h) (Homo sapiens, UniProt P30530).
T1 construct: purchased Millipore UK Ltd
T1 sequence (P30530 26-894): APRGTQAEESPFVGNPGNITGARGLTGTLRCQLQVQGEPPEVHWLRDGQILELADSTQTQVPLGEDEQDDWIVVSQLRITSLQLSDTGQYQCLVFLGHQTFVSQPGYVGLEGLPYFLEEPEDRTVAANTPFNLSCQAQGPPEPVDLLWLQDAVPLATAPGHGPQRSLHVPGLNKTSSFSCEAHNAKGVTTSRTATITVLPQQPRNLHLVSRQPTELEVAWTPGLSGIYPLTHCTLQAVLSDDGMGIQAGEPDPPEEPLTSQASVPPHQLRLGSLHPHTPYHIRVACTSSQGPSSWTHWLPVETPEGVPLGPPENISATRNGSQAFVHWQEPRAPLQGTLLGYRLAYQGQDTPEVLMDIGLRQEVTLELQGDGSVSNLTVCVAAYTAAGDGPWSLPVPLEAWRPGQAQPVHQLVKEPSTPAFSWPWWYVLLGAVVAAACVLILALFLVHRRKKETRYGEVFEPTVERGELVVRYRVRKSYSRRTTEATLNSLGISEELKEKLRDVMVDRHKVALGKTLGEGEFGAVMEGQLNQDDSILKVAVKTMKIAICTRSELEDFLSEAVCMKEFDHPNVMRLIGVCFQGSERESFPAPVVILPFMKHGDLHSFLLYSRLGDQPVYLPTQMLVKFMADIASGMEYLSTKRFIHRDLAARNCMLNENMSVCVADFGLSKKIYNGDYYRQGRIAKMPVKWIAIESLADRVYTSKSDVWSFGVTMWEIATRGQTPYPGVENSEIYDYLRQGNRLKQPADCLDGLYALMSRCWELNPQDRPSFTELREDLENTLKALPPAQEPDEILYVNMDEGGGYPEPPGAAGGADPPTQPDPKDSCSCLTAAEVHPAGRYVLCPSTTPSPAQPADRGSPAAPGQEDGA
The experiment in a line: Axl (h) kinase assay. The procedure:
(§1) The above assay procedure can be used to determine the IC50 for inhibition and/or the inhibition constant, Ki. The IC50 is defined as the concentration of compound required to reduce the enzyme activity by 50% under the condition of the assay. The IC50 value is estimated by preparing a 10 point curve using a 1/2 log dilution series (for example, a typical curve may be prepared using the following compound concentrations: 10 μM, 3 μM, 1 μM, 0.3 μM, 0.1 μM, 0.03 μM, 0.01 μM, 0.003 μM, 0.001 μM and 0 μM).
Axl (h) is incubated with 8 mM MOPS pH 7.0, 0.2 mM EDTA, 250 μM KKSRGDYMTMQIG, 10 mM MgAcetate and [γ-^33P-ATP] (specific activity approx. 500 cpm/pmol, concentration as required). The reaction is initiated by the addition of the MgATP mix. After incubation for 40 minutes at room temperature, the reaction is stopped by the addition of 3% phosphoric acid solution. 10 μL of the reaction is then spotted onto a P30 filtermat and washed three times for 5 minutes in 75 mM phosphoric acid and once in methanol prior to drying and scintillation counting.
(§2) The kinase assays described herein were performed at Millipore UK Ltd, Dundee Technology Park, Dundee DD2 1SW, UK.

For the next assay, the target named is T2, Mer (h) (Homo sapiens, UniProt Q12866).
T2 construct: purchased Millipore UK Ltd
T2 sequence (Q12866 21-999): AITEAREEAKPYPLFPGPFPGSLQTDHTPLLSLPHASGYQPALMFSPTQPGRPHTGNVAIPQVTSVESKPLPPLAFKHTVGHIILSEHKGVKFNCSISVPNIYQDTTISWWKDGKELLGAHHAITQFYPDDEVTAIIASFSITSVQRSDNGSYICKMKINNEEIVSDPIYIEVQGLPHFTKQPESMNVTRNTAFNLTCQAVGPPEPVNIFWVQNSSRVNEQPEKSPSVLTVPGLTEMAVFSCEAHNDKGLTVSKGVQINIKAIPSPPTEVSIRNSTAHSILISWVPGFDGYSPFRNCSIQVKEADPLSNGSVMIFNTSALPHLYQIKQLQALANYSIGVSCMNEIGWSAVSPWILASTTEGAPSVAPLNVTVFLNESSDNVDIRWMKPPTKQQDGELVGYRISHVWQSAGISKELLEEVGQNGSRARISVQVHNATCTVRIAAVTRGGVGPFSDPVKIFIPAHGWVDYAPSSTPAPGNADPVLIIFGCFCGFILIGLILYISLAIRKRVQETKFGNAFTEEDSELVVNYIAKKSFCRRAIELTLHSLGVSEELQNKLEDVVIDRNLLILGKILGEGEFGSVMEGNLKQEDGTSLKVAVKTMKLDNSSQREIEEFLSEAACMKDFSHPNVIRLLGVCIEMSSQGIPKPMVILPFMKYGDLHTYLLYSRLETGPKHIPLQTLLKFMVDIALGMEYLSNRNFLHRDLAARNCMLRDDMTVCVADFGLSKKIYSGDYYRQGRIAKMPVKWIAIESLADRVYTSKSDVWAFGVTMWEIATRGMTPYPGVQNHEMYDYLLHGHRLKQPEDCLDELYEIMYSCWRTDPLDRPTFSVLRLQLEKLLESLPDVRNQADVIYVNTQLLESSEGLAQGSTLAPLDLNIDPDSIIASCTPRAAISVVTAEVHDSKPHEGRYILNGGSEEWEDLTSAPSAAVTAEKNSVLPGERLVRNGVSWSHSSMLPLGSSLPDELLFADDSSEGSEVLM
The experiment in a line: Mer (h) kinase assay. The method, then: as §1
Mer (h) is incubated with 8 mM MOPS pH 7.0, 0.2 mM EDTA, 30 mM NaCl, 250 μM GGMEDIYFEFMGGKKK, 10 mM MgAcetate and [γ-^33P-ATP] (specific activity approx. 500 cpm/pmol, concentration as required). The reaction is initiated by the addition of the MgATP mix. After incubation for 40 minutes at room temperature, the reaction is stopped by the addition of 3% phosphoric acid solution. 10 μL of the reaction is then spotted onto a P30 filtermat and washed three times for 5 minutes in 75 mM phosphoric acid and once in methanol prior to drying and scintillation counting.
as §2

The target of another assay is T3, c-Met (h) (Homo sapiens, UniProt P08581).
T3 construct: purchased Millipore UK Ltd
T3 sequence (P08581 25-1390): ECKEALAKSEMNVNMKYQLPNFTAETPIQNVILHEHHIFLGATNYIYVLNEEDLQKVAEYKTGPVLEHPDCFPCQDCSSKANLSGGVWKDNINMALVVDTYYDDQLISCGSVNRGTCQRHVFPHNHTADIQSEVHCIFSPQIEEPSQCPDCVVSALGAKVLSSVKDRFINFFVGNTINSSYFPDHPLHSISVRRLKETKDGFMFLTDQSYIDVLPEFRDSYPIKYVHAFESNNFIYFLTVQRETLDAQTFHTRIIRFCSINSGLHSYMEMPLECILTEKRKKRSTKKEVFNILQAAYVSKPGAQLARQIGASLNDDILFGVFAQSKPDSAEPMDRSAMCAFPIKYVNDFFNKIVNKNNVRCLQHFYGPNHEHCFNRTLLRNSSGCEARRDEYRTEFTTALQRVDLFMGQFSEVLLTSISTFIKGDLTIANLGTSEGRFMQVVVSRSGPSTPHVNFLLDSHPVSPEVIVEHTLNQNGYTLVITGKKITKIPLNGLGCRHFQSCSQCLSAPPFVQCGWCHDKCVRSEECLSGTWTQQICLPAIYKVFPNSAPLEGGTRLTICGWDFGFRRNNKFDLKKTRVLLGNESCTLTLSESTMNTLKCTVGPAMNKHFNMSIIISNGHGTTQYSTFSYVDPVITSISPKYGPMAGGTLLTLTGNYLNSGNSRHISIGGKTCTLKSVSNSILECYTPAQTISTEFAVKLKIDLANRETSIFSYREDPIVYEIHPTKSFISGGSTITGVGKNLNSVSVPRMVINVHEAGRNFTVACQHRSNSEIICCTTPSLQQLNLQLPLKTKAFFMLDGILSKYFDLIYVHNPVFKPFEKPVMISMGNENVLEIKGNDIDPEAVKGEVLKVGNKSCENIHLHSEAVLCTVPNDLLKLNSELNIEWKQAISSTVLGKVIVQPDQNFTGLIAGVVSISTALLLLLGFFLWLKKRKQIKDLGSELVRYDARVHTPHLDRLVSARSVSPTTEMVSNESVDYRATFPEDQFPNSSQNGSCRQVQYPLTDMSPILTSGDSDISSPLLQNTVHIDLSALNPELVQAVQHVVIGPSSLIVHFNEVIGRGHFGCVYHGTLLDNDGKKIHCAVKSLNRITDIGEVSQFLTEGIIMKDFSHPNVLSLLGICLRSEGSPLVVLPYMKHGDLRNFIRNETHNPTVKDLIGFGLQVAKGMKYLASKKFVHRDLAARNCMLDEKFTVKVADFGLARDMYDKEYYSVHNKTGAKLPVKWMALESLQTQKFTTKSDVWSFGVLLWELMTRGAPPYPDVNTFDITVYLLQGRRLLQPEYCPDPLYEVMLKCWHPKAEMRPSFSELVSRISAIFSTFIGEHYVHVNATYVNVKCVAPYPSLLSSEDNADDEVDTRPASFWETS
The experiment in a line: c-Met (h) kinase assay. The procedure: Kinase assays can be performed by measurement of incorporation of γ-^33P ATP into immobilized myelin basic protein (MBP). High binding white 384 well plates (Greiner) are coated with MBP (Sigma #M-1891) by incubation of 60 μL/well of 20 μg/mL MBP in Tris-buffered saline (TBS; 50 mM Tris pH 8.0, 138 mM NaCl, 2.7 mM KCl) for 24 h at 4° C. Plates are washed 3× with 100 μL TBS. Kinase reactions are carried out in a total volume of 34 μL in kinase buffer (5 mM Hepes pH 7.6, 15 mM NaCl, 0.01% bovine gamma globulin (Sigma #I-5506), 10 mM MgCl2, 1 mM DTT, 0.02% TritonX-100). Compound dilutions are performed in DMSO and added to assay wells to a final DMSO concentration of 1%. Each data point is measured in duplicate, and at least two duplicate assays are performed for each individual compound determination. Enzyme is added to final concentrations of 10 nM or 20 nM, for example. A mixture of unlabeled ATP and γ-^33P ATP is added to start the reaction (2×10^6 cpm of γ-^33P ATP per well (3000 Ci/mmole) and 10 μM unlabeled ATP, typically. The reactions are carried out for 1 h at room temperature with shaking. Plates are washed 7× with TBS, followed by the addition of 50 μL/well scintillation fluid (Wallac). Plates are read using a Wallac Trilux counter. This is only one format of such assays; various other formats are possible, as known to one skilled in the art.
as §1
Met (h) is incubated with 8 mM MOPS pH 7.0, 0.2 mM EDTA, 250 μM KKKSPGEYVNIEFG, 10 mM MgAcetate and [γ-^33P-ATP] (specific activity approx. 500 cpm/pmol, concentration as required). The reaction is initiated by the addition of the MgATP mix. After incubation for 40 minutes at room temperature, the reaction is stopped by the addition of 3% phosphoric acid solution. 10 μL of the reaction is then spotted onto a P30 filtermat and washed three times for 5 minutes in 75 mM phosphoric acid and once in methanol prior to drying and scintillation counting.
as §2

Experimental findings from patent publication US20150299219A1, “BICYCLIC PYRAZOLONE COMPOUNDS AND METHODS OF USE” (Calitor Sciences, LLC, priority 2014, published 2015) are described below.

SMILES strings stand for the structures.

`O=C(Nc1ccc(Oc2ccnc(NC(=O)C3CC3)c2)c(F)c1)c1c2n(n(-c3ccccc3)c1=O)CCC2` [Ex. 5, N-(4-((2-(cyclopropanecarboxamido)pyridin-4-yl)oxy)-3-fluorophenyl)-2-oxo-1-phenyl-2,4,5,6-tetrahydro-1H-pyrrolo[1,2-b]pyrazole-3-carboxamide]: the results for the half-inhibitory concentration (IC50) against Axl (h), against Mer (h) and against c-Met (h) were 19 nM, 4 nM and 15 nM, respectively.

For `CC(=O)Nc1cc(Oc2ccc(NC(=O)c3c4n(n(-c5ccccc5)c3=O)CCC4)cc2F)ccn1` [Ex. 6, N-(4-((2-acetamidopyridin-4-yl)oxy)-3-fluorophenyl)-2-oxo-1-phenyl-2,4,5,6-tetrahydro-1H-pyrrolo[1,2-b]pyrazole-3-carboxamide], the values for the IC50 on Axl (h), against Mer (h) and against c-Met (h) were 36 nM, 33 nM and 57 nM, respectively.

As to `O=C(Nc1ccc(Oc2ccnc(NC(=O)C3CC3)c2)cn1)c1c2n(n(-c3ccccc3)c1=O)CCCC2` [Ex. 8, N-(5-((2-(cyclopropanecarboxamido)pyridin-4-yl)oxy)pyridin-2-yl)-2-oxo-1-phenyl-1,2,4,5,6,7-hexahydropyrazolo[1,5-a]pyridine-3-carboxamide], the values for the IC50 against Axl (h), against Mer (h) and against c-Met (h) were 7 nM, 3 nM and 5 nM, respectively.

As to `CC(=O)Nc1cc(Oc2ccc(NC(=O)c3c4n(n(-c5ccccc5)c3=O)CCCC4)nc2)ccn1` [Ex. 9, N-(5-((2-acetamidopyridin-4-yl)oxy)pyridin-2-yl)-2-oxo-1-phenyl-1,2,4,5,6,7-hexahydropyrazolo[1,5-a]pyridine-3-carboxamide], the half-maximal inhibitory concentration (IC50) on Axl (h) came out at 14 nM; against Mer (h) it was 12 nM; against c-Met (h), 27 nM.

Regarding `O=C(Nc1ccc(Oc2ccnc(NC(=O)C3CC3)c2)cn1)c1c2n(n(-c3ccccc3)c1=O)CCOC2` [Ex. 11, N-(5-((2-(cyclopropanecarboxamido)pyridin-4-yl)oxy)pyridin-2-yl)-2-oxo-1-phenyl-2,4,6,7-tetrahydro-1H-pyrazolo[5,1-c][1,4]oxazine-3-carboxamide], the half-inhibitory concentration (IC50) against Axl (h) came out at 5 nM; on Mer (h), 6 nM; against c-Met (h) it was 12 nM.

Take `O=C(Nc1ccc(Oc2ccnc(NC(=O)C3CC3)c2)c(F)c1)c1c2n(n(-c3ccccc3)c1=O)CCOC2` [Ex. 17, N-(4-((2-(cyclopropanecarboxamido)pyridin-4-yl)oxy)-3-fluorophenyl)-2-oxo-1-phenyl-2,4,6,7-tetrahydro-1H-pyrazolo[5,1-c][1,4]oxazine-3-carboxamide]: the IC50 at Axl (h) was 5 nM; at c-Met (h), 8 nM.

`CC(=O)Nc1cc(Oc2ccc(NC(=O)c3c4n(n(-c5ccccc5)c3=O)CCOC4)cc2)ccn1` [Ex. 20, N-(4-((2-acetamidopyridin-4-yl)oxy)phenyl)-2-oxo-1-phenyl-2,4,6,7-tetrahydro-1H-pyrazolo[5,1-c][1,4]oxazine-3-carboxamide]: the IC50 against Axl (h) worked out at 49 nM; against Mer (h), 44 nM.

Consider `Nc1nccc(Oc2ccc(NC(=O)c3c4n(n(-c5ccccc5)c3=O)CCCC4)nc2)c1Cl` [Ex. 21, N-(5-((2-amino-3-chloropyridin-4-yl)oxy)pyridin-2-yl)-2-oxo-1-phenyl-1,2,4,5,6,7-hexahydropyrazolo[1,5-a]pyridine-3-carboxamide], for which the IC50 at Axl (h) came out at 9 nM; on c-Met (h) it was 14 nM.

For `Nc1nccc(Oc2ccc(NC(=O)c3c4n(n(-c5ccccc5)c3=O)CCCC4)cc2)c1Cl` [Ex. 22, N-(4-((2-amino-3-chloropyridin-4-yl)oxy)phenyl)-2-oxo-1-phenyl-1,2,4,5,6,7-hexahydropyrazolo[1,5-a]pyridine-3-carboxamide], the IC50 on Axl (h) was found to be 16 nM; against c-Met (h) it was 54 nM.

Take `Nc1nccc(Oc2ccc(NC(=O)c3c4n(n(-c5ccccc5)c3=O)CCCC4)cc2F)c1Cl` [Ex. 23, N-(4-((2-amino-3-chloropyridin-4-yl)oxy)-3-fluorophenyl)-2-oxo-1-phenyl-1,2,4,5,6,7-hexahydropyrazolo[1,5-a]pyridine-3-carboxamide]: the values for the IC50 against Axl (h), against Mer (h) and against c-Met (h) were 10 nM, 14 nM and 30 nM, respectively.

By IC50 is commonly meant the concentration needed to halve the response being measured.
